This is an account of results in patent US20160362416A1, “ANTIVIRAL COMPOUNDS” (Gilead Sciences, Inc., priority 2012, published 2016).

Series [1] deals with Y93H in genotype 3a NS5A replicon. In words: Resistance mutant replicon assay, genotype 3a NS5A Y93H. In kind it is cell-based, HCV. The settings on record: Hepatitis C virus, read-out: 3a Y93H (nM). The gist of the method:
(§1)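 Renilla luciferase activity in lysed cells after 72 h with 3-fold serially diluted compound gave EC50 by non-linear regression. Cells were Huh-7-derived cured-51, transiently transfected with mutant replicon RNA (1a or 1b Pi-RLuc backbone; 3a NS5A in 1b chimera) made by site-directed mutagenesis.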

The subject of series [2] is stable HCV 1b RLuc replicon cells (genotype 1b Con1 replicon). In words: HCV genotype 1b RLuc replicon reporter assay. As to conditions: Hepatitis C virus; stable genotype 1b Con1 RLuc replicon cells, 72 hours. Format: cell-based. In outline:
(§2)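 Chimeric replicons for 3a and 4a use a Pi-RLuc reporter and were transiently transfected into Huh-Lunet cells; the 2b chimera (RLuc-Neo) was likewise transient in Huh-Lunet; 1b cells are stable. Cells were exposed to 3-fold serial compound dilutions for 72 h, then lysed. EC50s came from non-linear regression of Renilla luciferase signal.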

The subject of series [3] is NS5A chimeric genotype 2a JFH-1 replicon with genotype 2b MD2b-1 strain NS5A gene (M31). Kind of series: HCV genotype 2b NS5A chimeric replicon assay, stable (s). Format: cell-based. As to conditions: Hepatitis C virus, 72 h, read-out: 2b (s) (nM). (In antiviral work, replicon cells carry a viral genome segment that copies itself.)
Series [4] concerns stable HCV 1a RLuc replicon cells (genotype 1a H77 replicon). In words: HCV genotype 1a RLuc replicon reporter assay. Format: cell-based. As to conditions: Hepatitis C virus; stable genotype 1a H77 RLuc replicon cells, 72 hours.
The test system of series [5] is NS5A chimeric genotype 2a JFH-1 replicon with genotype 2a J6 strain NS5A gene (M31). In words: HCV genotype 2a J6 NS5A chimeric replicon assay, transient (t). In kind it is cell-based. As to conditions: Hepatitis C virus, 72 h, read-out: 2a J6 (t) (nM).
Series [6] relates to Q30E in genotype 1a NS5A replicon. Kind of series: Resistance mutant replicon assay, genotype 1a NS5A Q30E. Format: cell-based, HCV. The settings on record: Hepatitis C virus, read-out: 1a Q30E (nM). The protocol:
(§3) Evaluation of cell-based anti-HCV activity: Antiviral potency (EC50) was determined using a Renilla luciferase (RLuc)-based HCV replicon reporter assay. To perform the assay for genotype 1 and 2a JFH-1, stable HCV 1a RLuc replicon cells (harboring a dicistronic genotype 1a H77 replicon that encodes a RLuc reporter), stable HCV lb RLuc replicon cells (harboring a dicistronic genotype 1b Conl replicon that encodes a RLuc reporter), or stable HCV 2a JFH-1 Rluc replicon cells (harboring a dicistronic genotype 2a JFH-1 replicon that encodes a RLuc reporter; with L31 present in NS5A) were dispensed into 384-well plates for EC50 assays. To perform the assay for genotype 2a (with M31 present in NS5A) or 2b, NS5A chimeric genotype 2a JFH-1 replicons that encodes a RLuc-Neo reporter and either genotype 2a J6 strain NS5A gene or genotype 2b MD2b-1 strain NS5A gene (both with M31 present) respectively, were either transiently transfected (t) into Huh-Lunet cells or were established as stably replicating replicon cells (s) is provided. Either cells were dispensed into 384-well plates for EC50 assays. To perform the assay for genotype 3 and 4, NS5A chimeric genotype 1b Conl replicons that encodes a Pi-RLuc reporter and either genotype 3a S52 strain NS5A gene or genotype 4a ED43 strain NS5A gene respectively, were transiently transfected (t) into Huh-Lunet cells, which were subsequently dispensed into 384-well plates. Compounds were dissolved in DMSO at a concentration of 10 mM and diluted in DMSO either manually or using an automated pipeting instrument. Serially 3-fold diluted compounds were either manually mixed with cell culture media and added to the seeded cells or directly added to the cells using an automated instrument. DMSO was used as a negative (solvent; no inhibition) control, and the protease inhibitor ITMN-191 was included at a concentration >100×EC50 as a positive control. 72 hours later, cells were lysed and Renilla luciferase activity quantified as recommended by the manufacturer (Promega-Madison, Wis.). Non-linear regression was performed to calculate EC50 values.
(§4) To determine the antiviral potency (EC50) against resistance mutants, resistance mutations, including M28T, Q30R, Q30H, Q30E, L31M, Y93C, Y93H, and Y93N in genotype 1a NS5A, Y93H and L31V/Y93H in genotype 1b NS5A, and Y93H for in genotype 3a NS5A, were introduced individually into either 1a Pi-Rluc or 1b Pi-Rluc replicons by site directed mutagenesis. Replicon RNA of each resistant mutant was transiently transfected into Huh-7-derived cured-51 cells and antiviral potency was determined on these transfected cells as described above.

Series [7] concerns NS5A chimeric genotype 1b Con1 replicon with genotype 3a S52 strain NS5A gene. Kind of series: HCV genotype 3a NS5A chimeric replicon assay. In kind it is cell-based. The settings on record: Hepatitis C virus, 72 h, read-out: 3a (nM). The gist of the method:
as §2

Series [8] deals with stable HCV 2a JFH-1 Rluc replicon cells (L31 present in NS5A). In words: HCV genotype 2a JFH-1 RLuc replicon reporter assay. In kind it is cell-based. The settings on record: Hepatitis C virus, 72 h, read-out: 2a JFH (nM).
Series [9] is described as follows: IV and PO single dose pharmacokinetic studies in SD rats. Format: in vivo. The settings on record: Sprague-Dawley, rat, plasma, male SD rats, IV infusion 1 mg/kg, oral gavage 2 mg/kg, read-out: Rat % F. The protocol: IV and PO Single Dose Pharmacokinetic Studies in SD Rats: The pharmacokinetics of selected compounds was characterized in male Sprague-Dawley (SD) rats (250-300 g). In this study, two groups of naïve purebred SD rats (N=3 per group, fasted over night) received the selected compound either as an intravenous (IV) infusion (1 mg/kg over 30 minutes) via the jugular vein or by oral gavage (2 mg/kg). The intravenous (IV) dosing vehicle was 5% ethanol, 35% polyethylene glycol 400 (PEG 400) and 60% water pH 2.0. The oral dosing vehicle was 5% ethanol, 55% PEG 400 and 40% citrate buffer pH 2.2.
Serial blood samples (approximately 0.3 mL each) were collected from jugular vein or other suitable vein at specified time points. For the IV infusion group, the blood samples were collected predose and at 0.25, 0.48, 0.58, 0.75, 1.5, 3, 6, 8, 12 and 24 hours after the start of infusion. For the oral group, the blood samples were collected predose and at 0.25, 0.50, 1, 2, 4, 6, 8, 12 and 24 hours after dosing. The blood samples were collected into Vacutainer™ tubes containing EDTA-K3 as the anti-coagulant and were centrifuged at approximately 4° C. to obtain plasma. The plasma samples were stored at −20° C. until analysis by LC/MS/MS.
A bioanalytical method utilizing high performance liquid chromatography coupled to tandem mass spectrometry (LC/MS/MS) was developed for analysis of the selected compound in rat plasma. Detection was performed using selected reaction monitoring (SRM); Ions representing the precursor (M+H)^+ species was selected in quadrupole 1 (Q1) and collided with argon gas in the collision cell (Q2) to generate specific product ion, which was subsequently monitored by quadrupole 3 (Q3). Standard curve and quality control samples were prepared in male rat plasma and processed in the same way as the test samples to generate quantitative data.
Pharmacokinetic parameters were generated using non-compartmental pharmacokinetic analysis (Phoenix WinNonlin, version 6.3). Values below the lower limit of quantification (LLOQ) were assigned a value of zero if predose and treated as missing thereafter. Area under the curve (AUC) was calculated using the linear trapezoidal rule. The oral bioavailability (% F) was determined by comparison of the area under the curve (AUC) of the compound and/or a metabolite generated in plasma following oral administration to that generated following intravenous administration.

Series [10] concerns Y93H in genotype 1a NS5A replicon. Kind of series: Resistance mutant replicon assay, genotype 1a NS5A Y93H. The settings on record: Hepatitis C virus, read-out: 1a Y93H (nM). In kind it is cell-based, HCV. The gist of the method:
as §1

The test system of series [11] is NS5A chimeric genotype 1b Con1 replicon with genotype 4a ED43 strain NS5A gene. Kind of series: HCV genotype 4a NS5A chimeric replicon assay. Format: cell-based. As to conditions: Hepatitis C virus, 72 h, read-out: 4a (s) (nM).
In series [12] the test system is NS5A chimeric genotype 2a JFH-1 replicon with genotype 2b MD2b-1 strain NS5A gene (M31). Kind of series: HCV genotype 2b NS5A chimeric replicon assay, transient (t). Format: cell-based. As to conditions: Hepatitis C virus, 72 h, read-out: 2b (t) (nM). How it is done: as §3
In series [13] the test system is Y93N in genotype 1a NS5A replicon. Kind of series: Resistance mutant replicon assay, genotype 1a NS5A Y93N. Format: cell-based, HCV. The settings on record: Hepatitis C virus, read-out: 1a Y93N (nM). In outline: as §1
Series [14] relates to L31V/Y93H in genotype 1b NS5A replicon. Kind of series: Resistance mutant replicon assay, genotype 1b NS5A L31V/Y93H. Format: cell-based, HCV. The settings on record: Hepatitis C virus, read-out: 1b L31V/Y93H (nM). How it is done:
as §3, §4

Consider `COC(=O)N[C@H](C(=O)N1[C@@H](C)CC[C@H]1c1ncc(-c2ccc3c(c2)COc2cc4c(ccc5nc([C@@H]6CC[C@H](C)N6C(=O)[C@@H](NC(=O)OC)C6CCOCC6)[nH]c54)cc2-3)[nH]1)C(C)C` [Comp 5, reference compound], for which the EC50 in series [1] came to 0.549 nM; in [2] it was 0.029 nM; in [3], 0.054 nM; in series [4], 0.022 nM; in [5], 0.012 nM; in [6], 0.297 nM. For the same compound, the figures for the EC50 in series [7], in [8] and in [10] were 0.041 nM, 0.013 nM and 0.466 nM, respectively. The bioavailability in [9] worked out at 22%.

In the case of `COC(=O)N[C@H](C(=O)N1[C@@H](C)CC[C@H]1c1nc2ccc3cc4c(cc3c2[nH]1)OCc1cc(-c2cnc([C@@H]3CC[C@H](C)N3C(=O)[C@@H](NC(=O)OC)C3CCOCC3)[nH]2)ccc1-4)C(C)C` [Comp 7, reference compound], the EC50 was determined as 0.028 nM in [2]; 0.088 nM in [3]; 0.018 nM in [4]; 0.035 nM in [5]; 0.019 nM in [11]; 0.035 nM in series [7]. Further, the EC50 is 0.015 nM in [8] and 0.037 nM in [12]. Further, the bioavailability in series [9] was determined as 10.2%.

Turning to `COC[C@H]1C[C@@H](c2ncc(-c3ccc4c(c3)COc3cc5c(ccc6nc([C@@H]7CC[C@H](C)N7C(=O)[C@@H](NC(=O)OC)C(C)C)[nH]c65)cc3-4)[nH]2)N(C(=O)[C@@H](NC(=O)OC)C2C[C@@H](C)O[C@H](C)C2)C1` (stereo partly drawn) [Example AB, Methyl {(2S)-1-[(2S,5S)-2-(9-{2-[(2S,4S)-1-{(2S)-2-[(2R,6R)-2,6-dimethyltetrahydro-2H-pyran-4-yl]-2-[(methoxycarbonyl)amino]acetyl}-4-(methoxymethyl)pyrrolidin-2-yl]-1H-imidazol-5-yl}-1,11-dihydroisochromeno[4′,3′:6,7]naphtho[1,2-d]imidazol-2-yl)-5-methylpyrrolidin-1-yl]-3-methyl-1-oxobutan-2-yl}carbamate], the EC50 in series [1] worked out at 8.77 nM; in [2] it was 0.046 nM; in series [4], 0.026 nM; in [5], 0.028 nM; in [6], 0.082 nM; in series [11], 0.006 nM. Moreover, the EC50 in series [13] came out at 0.418 nM; in series [7], 0.025 nM; in series [8], 0.011 nM; in [10] it was 0.163 nM; in series [14] it was 0.668 nM; in series [12], 0.024 nM.

Turning to `CC[C@H]1CC[C@@H](c2nc3ccc4cc5c(cc4c3[nH]2)OCc2cc(-c3cnc([C@@H]4CC[C@H](C)N4C(=O)[C@@H](NC(=O)OC)C(C)C)[nH]3)ccc2-5)N1C(=O)[C@@H](NC(=O)OC)[C@H]1CCCOC1` [Example AG, Methyl{(1S)-2-[(2S,5S)-2-ethyl-5-(9-{2-[(2S,5S)-1-{(2S)-2[(methoxycarbonyl)amino]-3-methylbutanoyl}-5-methylpyrrolidin-2-yl]-1H-imidazol-5-yl}-1,11-dihydroisochromeno[4′,3′:6,7]naphtho[1,2-d]imidazol-2-yl)pyrrolidin-1-yl]-2-oxo-1-[(3R)-tetrahydro-2H-pyran-3-yl]ethyl}carbamate], the EC50 in [2] was found to be 0.026 nM; in [3] it was 0.092 nM; in series [4] it was 0.023 nM; in series [5], 0.121 nM; in series [11], 0.014 nM; in series [7] it was 0.137 nM. Besides, the EC50 in series [8] came out at 0.025 nM. Also, the bioavailability in series [9] worked out at 27.8%.

As to `CC[C@H](C)[C@H](NC(=O)OC)C(=O)N1[C@@H](C)CC[C@H]1c1nc2ccc3cc4c(cc3c2[nH]1)OCc1cc(-c2cnc([C@@H]3CC[C@H](C)N3C(=O)[C@@H](NC(=O)OC)C3C[C@@H](C)O[C@H](C)C3)[nH]2)ccc1-4` (stereo partly drawn) [Example BL, methyl{(2S,3S)-1-[(2S,5S)-2-(9-{2-[(2S,5S)-1-{(2S)-2-[(2R,6R)-2,6-dimethyltetrahydro-2H-pyran-4-yl]-2-[(methoxycarbonyl)amino]acetyl}-5-methylpyrrolidin-2-yl]-1H-imidazol-5-yl}-1,11-dihydroisochromeno[4′,3′:6,7]naphtho[1,2-d]imidazol-2-yl)-5-methylpyrrolidin-1-yl]-3-methyl-1-oxopentan-2-yl}carbamate], the EC50 stood at 1.05 nM in series [1]; 0.024 nM in series [2]; 0.018 nM in series [4]; 0.022 nM in [5]; 0.006 nM in series [11]; 0.531 nM in [13]. In addition, the EC50 in series [7] came to 0.014 nM; in series [8], 0.009 nM; in series [10], 0.228 nM; in [12] it was 0.021 nM.
